Where two headings read alike, the source gives them in different places.
Columns and labels:
Assay type in all cases: biochemical
SULT1A1*1 = molecular target: T1, SULT1A1*1 (Homo sapiens, UniProt P50225); experiment: Inhibition of 3-OH-BaP sulfotransferase activity by OH-PCBs with cDNA-expressed SULT1A1*1; conditions: for IC50: mean of duplicates
T1 construct: made in house; host or cells: Escherichia coli
Description: (§1) The expression of human SULT1A1*1, SULT1A3, SULT1B1, and SULT1E1 in Escherichia coli has been described previously ([Dajani et al. 1998]; [Wang et al. 1998]). We grew E. coli cells containing the respective sulfotransferase genes as described previously ([Falany et al. 1990], [1994]), and prepared 100,000g supernatant fractions for use in inhibition studies and for partial purification of the SULT enzymes. We purchased expressed SULT1A1*2 cytosolic extract from PanVera (Madison, WI) and used it as supplied.
(§2) We determined SULT activity with 3-OH-BaP as substrate by a fluorimetric assay of BaP-3-SO4 product formation, as described previously ([Wang et al. 2004]). […] Duplicate tubes were prepared for each incubation condition. We examined the kinetics of sulfonation in three liver cytosol fractions by systematically varying the concentration of 3-OH-BaP or PAPS. When the variable substrate was 3-OH-BaP, we used 12 concentrations in the range from 0.035 to 2.00 μM, and the concentration of PAPS was kept constant at 10 μM. When we varied PAPS, we used 7 concentrations from 0.157 to 10.0 μM and kept the concentration of 3-OH-BaP constant at 0.100 μM.
(§3) For each OH-PCB, we examined the concentration dependence of inhibition with three liver cytosol fractions, as well as with cytosol fractions from the E. coli expressing SULT1A1*1, SULT1A3, SULT1B1, and SULT1E1, and the purchased Sf-9 cytosol fraction (PanVera, Madison, WI) containing SULT1A1*2. For studies with HL cytosol, SULT1A1*1, and SULT1E1, we examined two concentrations of 3-OH-BaP, 0.1 μM and 1.0 μM.
(§4) We calculated the effects of OH-PCBs on 3-OH-BaP SULT activity as percentage inhibition compared with the controls without an inhibitor. We obtained IC50 values by fitting log OH-PCB concentration and percent control activity to a sigmoidal curve. We examined the relationships between IC50 and physicochemical properties of the OH-PCBs by linear correlation analysis. We calculated the inhibitory constant (Ki) from the kinetic studies with 4′-OH-CB112 by means of Dixon plots and plots of Km/Vmax against inhibitor concentration ([Cornish-Bowden 1995]).

SULT1E1 = molecular target: T2, SULT1E1 (Homo sapiens, UniProt P49888); experiment: Inhibition of 3-OH-BaP sulfotransferase activity by OH-PCBs with cDNA-expressed SULT1E1; conditions: for IC50: mean of duplicates
T2 construct: made in house; host or cells: Escherichia coli
T2 sequence (P49888 1-294): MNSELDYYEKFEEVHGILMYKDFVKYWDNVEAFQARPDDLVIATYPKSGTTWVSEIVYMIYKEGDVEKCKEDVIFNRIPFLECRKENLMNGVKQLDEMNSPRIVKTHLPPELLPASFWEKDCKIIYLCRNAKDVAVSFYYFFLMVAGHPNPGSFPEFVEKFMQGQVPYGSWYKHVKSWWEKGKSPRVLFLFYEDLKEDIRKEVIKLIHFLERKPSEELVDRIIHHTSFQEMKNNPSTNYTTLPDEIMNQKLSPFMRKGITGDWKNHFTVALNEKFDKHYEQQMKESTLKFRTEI
Description: as §1, §2, §3, §4

SULT1A3 = molecular target: T3, SULT1A3 (Homo sapiens, UniProt P0DMM9); experiment: Inhibition of 3-OH-BaP sulfotransferase activity by 50 μM OH-PCBs with cDNA-expressed SULT1A3; conditions: for inhibition at 50 µM: read-out: inhibition of 3-OH-BaP sulfonation by SULT1A3
T3 construct: made in house; host or cells: Escherichia coli
T3 sequence (P0DMM9 whole entry): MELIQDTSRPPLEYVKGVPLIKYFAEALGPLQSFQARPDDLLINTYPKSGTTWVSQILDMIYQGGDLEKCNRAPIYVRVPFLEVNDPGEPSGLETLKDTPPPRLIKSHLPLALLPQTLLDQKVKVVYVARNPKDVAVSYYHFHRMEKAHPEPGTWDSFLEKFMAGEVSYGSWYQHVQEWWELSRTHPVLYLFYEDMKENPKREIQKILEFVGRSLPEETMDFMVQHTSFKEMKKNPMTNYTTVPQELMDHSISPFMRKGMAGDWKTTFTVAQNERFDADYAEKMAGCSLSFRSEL
Description: as §1, §2, §3, §4

SULT1B1 = molecular target: T4, SULT1B1 (Homo sapiens, UniProt O43704); experiment: Inhibition of 3-OH-BaP sulfotransferase activity by OH-PCBs with cDNA-expressed SULT1B1; conditions: for IC50: mean of duplicates
T4 construct: made in house; host or cells: Escherichia coli
T4 sequence (O43704 whole entry): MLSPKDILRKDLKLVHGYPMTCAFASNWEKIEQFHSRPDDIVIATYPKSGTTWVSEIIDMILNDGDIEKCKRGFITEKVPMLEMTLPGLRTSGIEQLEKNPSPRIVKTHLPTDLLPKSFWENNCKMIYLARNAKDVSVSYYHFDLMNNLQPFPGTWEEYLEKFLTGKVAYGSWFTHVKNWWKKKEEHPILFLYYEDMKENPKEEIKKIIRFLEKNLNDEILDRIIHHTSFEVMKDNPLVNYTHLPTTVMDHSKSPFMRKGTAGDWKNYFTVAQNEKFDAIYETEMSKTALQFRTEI
Description: as §1, §2, §3, §4

SULT1A1*2 [1] = molecular target: T5, SULT1A1*2 (Homo sapiens, UniProt P50225, R213H); experiment: Inhibition of 3-OH-BaP sulfotransferase activity by OH-PCBs with expressed SULT1A1*2
T5 construct: purchased PanVera (Madison, WI); host or cells: Sf-9
T5 sequence (P50225 whole entry R213H): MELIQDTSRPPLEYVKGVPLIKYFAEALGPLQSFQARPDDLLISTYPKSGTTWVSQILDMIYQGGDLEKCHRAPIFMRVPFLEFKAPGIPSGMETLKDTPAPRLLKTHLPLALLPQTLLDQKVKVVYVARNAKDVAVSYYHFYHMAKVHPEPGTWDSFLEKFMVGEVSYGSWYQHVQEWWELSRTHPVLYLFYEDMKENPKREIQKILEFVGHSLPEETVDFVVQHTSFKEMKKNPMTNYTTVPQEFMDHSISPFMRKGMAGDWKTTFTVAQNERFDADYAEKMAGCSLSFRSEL
Description: as §1, §2, §3, §4

[2] = molecular target: HL cytosol sulfotransferase (Homo sapiens, UniProt P50225); experiment: Kinetics of 3-OH-BaP sulfonation by human liver cytosol (fluorimetric assay of BaP-3-SO4 formation); conditions: HL cytosol, 0.1 μM 3-OH-BaP, varying PAPS, mean ± SD n = 3
HL cytosol sulfotransferase, sequence (P50225 whole entry): as the sequence (P50225 whole entry R213H) above, with H213R counted along it
Method: F.P. Guengerich (Vanderbilt University) kindly donated the samples of human liver, which were procured from organ donors ([Guengerich 1995]). We prepared liver cytosolic fractions from four livers by standard methods and stored aliquots at −80°C until use ([Wang et al. 2004]). We used three or four of these cytosol fractions in each experiment.
as §2
(§5) We calculated the enzyme kinetic parameters from studies with variable concentrations of 3-OH-BaP using nonlinear regression analysis and GraphPad 4.0 software (GraphPad Software, San Diego, CA). We selected the built-in Michaelis-Menten equation for most analyses. Where we found evidence of 3-OH-BaP substrate inhibition, we fit the data into an equation derived from a two-substrate model ([Zhang et al. 1998]): […]
(§6) This equation denoted the constant for binding of the first substrate (S) molecule as Km and the second substrate molecule as Ki. V1 is the maximum rate for the noninhibitory substrate concentration range, and V2 is the minimum rate in the inhibitory substrate concentration range

SULT1A1*2 [3] = molecular target: T5, SULT1A1*2; experiment: Kinetics of 3-OH-BaP sulfonation by expressed SULT1A1*2; conditions: expressed SULT1A1*2, 0.1 μM 3-OH-BaP, varying PAPS
Description: as §1, §2
We determined the kinetic parameters for 3-OH-BaP sulfonation by partially purified preparations of the cDNA-expressed SULT isozymes under incubation conditions similar to those used for liver cytosol. For SULT1A1*1 and -1A1*2, we used seven substrate concentrations in the range from 5 to 100 nM; for SULT1E1 we used […] 3-OH-BaP concentrations from 15.6 to 1,000 nM; and for SULT1A3 and 1B1 we used seven concentrations of 3-OH-BaP from 0.25 to 5.0 μM.
as §5, §6

[4] = 0.1 μM 3-OH-BaP, read-out: IC50 SULT1A1*1
[5] = 1.0 μM 3-OH-BaP, read-out: IC50 SULT1A1*1
[6] = 0.1 μM 3-OH-BaP, read-out: IC50 SULT1E1
[7] = 1.0 μM 3-OH-BaP, read-out: IC50 SULT1E1
[8] = 1.0 μM 3-OH-BaP, read-out: IC50 SULT1B1
[9] = 0.1 μM 3-OH-BaP, mean of duplicates, read-out: IC50 SULT1A1*2
[10] = IC50 SULT1A1*1, 0.1 μM 3-OH-BaP
[11] = IC50 SULT1A1*1, 1.0 μM 3-OH-BaP

Row | Structure (SMILES) | IC50 (SULT1A1*1; [4]) | IC50 (SULT1A1*1; [5]) | IC50 (SULT1E1; [6]) | IC50 (SULT1E1; [7]) | inhibition of 3-OH-BaP sulfonation by SULT1A3 (SULT1A3; 50 μM OH-PCB, 1.0 μM 3-OH-BaP) | IC50 (SULT1B1; [8]) | IC50 (SULT1A1*2 [1]; [9]) | inhibition at 50 µM (SULT1A3; 50 μM OH-PCB, 1.0 μM 3-OH-BaP) | other results
1 | Oc1ccc(Cl)cc1-c1ccc(Cl)c(Cl)c1 [Compound A1, 6′-OH-CB35] | > 100 µM | > 100 µM | ~100 µM | > 100 µM | did not inhibit | 4.72 µM | > 100 µM | – | inhibitory potency in words, SULT1A1*1 (SULT1A1*1; both substrate concentrations (0.1 and 1.0 μM 3-OH-BaP)): poor inhibitor; inhibitory potency in words, SULT1E1 (SULT1E1; either substrate concentration (0.1 and 1.0 μM 3-OH-BaP)): poor inhibitor; inhibitory potency in words, SULT1B1 (SULT1B1; 1.0 μM 3-OH-BaP): fairly potent inhibitor
2 | Oc1ccc(-c2ccc(Cl)c(Cl)c2)cc1Cl [Compound B1, 4′-OH-CB35] | 0.77 µM | 25.2 µM | 0.24 µM | 1.02 µM | – | 16.8 µM | 0.55 µM | 2 to 20% | –
3 | Oc1ccc(-c2cc(Cl)cc(Cl)c2)cc1Cl [Compound B2, 4′-OH-CB36] | 1.31 µM | 28 µM | 0.45 µM | 1.89 µM | – | 37 µM | 0.94 µM | 2 to 20% | –
4 | Oc1ccc(-c2c(Cl)cc(Cl)cc2Cl)cc1Cl [Compound B3, 4′-OH-CB69] | 1.16 µM | 67.5 µM | 4.87 µM | 30.8 µM | did not inhibit | > 100 µM | 1.31 µM | – | –
5 | Oc1ccc(-c2cc(Cl)c(Cl)c(Cl)c2Cl)cc1Cl [Compound B4, 4′-OH-CB106] | – | – | – | – | did not inhibit | – | – | – | IC50 (SULT1A1*1; [10]): 1.07 µM; IC50 (SULT1A1*1; [11]): 10.3 µM; IC50 (SULT1E1; IC50 SULT1E1, 0.1 μM 3-OH-BaP): 1.18 µM; IC50 (SULT1E1; IC50 SULT1E1, 1.0 μM 3-OH-BaP): 6.97 µM; IC50 (SULT1B1; IC50 SULT1B1, 1.0 μM 3-OH-BaP): 17.4 µM; IC50 (SULT1A1*2 [1]): 1.06 µM
6 | Oc1c(Cl)cc(-c2ccc(Cl)c(Cl)c2)cc1Cl [Compound C1, 4′-OH-CB79] | – | – | – | – | – | – | – | – | IC50 (SULT1A1*1; [10]): 6.65 µM; IC50 (SULT1A1*1; [11]): 59.8 µM; IC50 (SULT1E1; IC50 SULT1E1, 0.1 μM 3-OH-BaP): 0.5 µM; IC50 (SULT1E1; IC50 SULT1E1, 1.0 μM 3-OH-BaP): 1.32 µM; inhibition at 50 µM (SULT1A3): 2 to 20%; IC50 (SULT1B1; IC50 SULT1B1, 1.0 μM 3-OH-BaP): 39.9 µM; IC50 (SULT1A1*2 [1]): 4.57 µM
7 | Oc1c(Cl)cc(-c2cccc(Cl)c2)cc1Cl [Compound C2, 4-OH-CB36] | 3.09 µM | > 100 µM | 0.41 µM | 1.65 µM | – | 47.5 µM | 3.05 µM | 43% | –
8 | Oc1c(Cl)cc(-c2c(Cl)cc(Cl)cc2Cl)cc1Cl [Compound C3, 4′-OH-CB121] | – | – | – | – | did not inhibit | – | – | – | IC50 (SULT1A1*1; [10]): 8.15 µM; IC50 (SULT1A1*1; [11]): 99.5 µM; IC50 (SULT1E1; IC50 SULT1E1, 0.1 μM 3-OH-BaP): 7.98 µM; IC50 (SULT1E1; IC50 SULT1E1, 1.0 μM 3-OH-BaP): 16.7 µM; IC50 (SULT1B1; IC50 SULT1B1, 1.0 μM 3-OH-BaP): > 100 µM; IC50 (SULT1A1*2 [1]): 6.52 µM
9 | Oc1c(Cl)cc(-c2cc(Cl)c(Cl)c(Cl)c2Cl)cc1Cl [Compound C4, 4′-OH-CB159] | 2.16 µM | 34.1 µM | 1.3 µM | 3.55 µM | – | > 100 µM | 1.67 µM | 2 to 20% | –
10 | Oc1c(Cl)cc(-c2c(Cl)c(Cl)cc(Cl)c2Cl)cc1Cl [Compound C5, 4′-OH-CB165] | 2.58 µM | 54.8 µM | 6.96 µM | 21.4 µM | did not inhibit | > 100 µM | 2.59 µM | – | –
11 | Oc1c(Cl)cc(-c2cc(Cl)ccc2Cl)cc1Cl [Compound C6, 4′-OH-CB72] | 2.21 µM | 33.8 µM | 0.57 µM | 2.28 µM | did not inhibit | > 100 µM | 2.03 µM | – | –
12 | Nc1ncnc2c1ncn2[C@@H]1O[C@H](COP(=O)(O)OS(=O)(=O)O)[C@@H](OP(=O)(O)O)[C@H]1O [PAPS, 3′-phosphoadenosine 5′-phosphosulfate] | – | – | – | – | – | – | – | – | Vmax (varying PAPS) [2]: 48 ± 2 pmol/min/mg protein; Km ([2]; read-out: apparent Km for PAPS): 0.56 ± 0.09 µM; Vmax (varying PAPS) (SULT1A1*2 [3]): 684 pmol/min/mg protein; Km (SULT1A1*2 [3]; read-out: apparent Km for PAPS): 0.32 µM
